The supplement of paper PMC10307832

Legend:
Assay in all cases: relative viability (nuclei count vs DMSO), 5 days (fraction); higher = more cells survive
[1] = compound: C1CNCCC1C2=CC(=NN2)C3=CC=NC=C3 + O=C(c1cc(Cc2n[nH]c(=O)c3ccccc23)ccc1F)N1CCN(C(=O)C2CC2)CC1 [Olaparib] (partner 8 µM)
Procedure, shortened: (§1)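 Relative viability divides the nuclei count in treated wells by that in vehicle wells. Lung cancer cell lines were seeded in 1536-well plates, dosed by pin tool the next day, and fixed and stained after 5 days in one step with final 0.05% Triton X-100, 1% formaldehyde and 1 ug/ml Hoechst. Dosing was a single drug or a fixed anchor-drug dose plus five library-drug doses (not always all listed) in √10 steps, and values are medians of duplicate plates imaged at 4×.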

[2] = compound: C[C@@H](N)c1ccc(C(=O)Nc2ccnc3[nH]ccc23)cc1 + Cc1nc(Nc2ncc(C(=O)Nc3c(C)cccc3Cl)s2)cc(N2CCN(CCO)CC2)n1 [Dasatinib] (partner 0.075 µM)
Procedure, shortened: as §1

[3] = compound: C[C@@H](N)c1ccc(C(=O)Nc2ccnc3[nH]ccc23)cc1 + Cc1nc(NC(=O)N2CCC[C@H]2C(N)=O)sc1-c1ccnc(C(C)(C)C(F)(F)F)c1 [Alpelisib] (partner 2 µM)
Procedure, shortened: as §1

[4] = compound: C1CNCCC1C2=CC(=NN2)C3=CC=NC=C3 + C[C@]1(O)C[C@@H](c2nc(-c3ccc4ccc(-c5ccccc5)nc4c3)c3c(N)nccn32)C1 [Linsitinib] (partner 1 µM)
Procedure, shortened: as §1

Cell Line | relative viability ([1]; first compound 0.08 µM) | relative viability ([1]; first compound 0.8 µM) | relative viability ([1]; first compound 2.53 µM) | relative viability ([1]; first compound 8 µM) | relative viability ([2]; first compound 0.04 µM) | relative viability ([2]; first compound 0.1265 µM) | relative viability ([2]; first compound 0.4 µM) | relative viability ([2]; first compound 1.265 µM) | relative viability ([2]; first compound 4 µM) | relative viability ([3]; first compound 0.04 µM) | relative viability ([3]; first compound 0.1265 µM) | relative viability ([3]; first compound 0.4 µM) | relative viability ([3]; first compound 4 µM) | relative viability ([4]; first compound 0.08 µM) | relative viability ([4]; first compound 0.8 µM) | relative viability ([4]; first compound 2.53 µM) | relative viability ([4]; first compound 8 µM) | relative viability ([3]; first compound 1.265 µM)
NCI-H1395 | 0.46 | 0.404 | 0.447 | 0.522 | 0.416 | 0.431 | 0.368 | 0.394 | 0.399 | 1.07 | 0.976 | 0.996 | 0.838 | 1.02 | 0.886 | 1.24 | 0.977 | –
NCI-H647 | 0.556 | 0.661 | 0.511 | 0.552 | 0.15 | 0.172 | 0.157 | 0.166 | 0.133 | 1.32 | 1.08 | 0.962 | 0.928 | 1.28 | 1.45 | 1.38 | 1.09 | 0.96
NCI-H650 | 0.4 | 0.424 | 0.376 | 0.405 | – | 0.41 | 0.393 | 0.245 | 0.32 | 1.19 | 1.15 | 1.06 | 0.841 | 0.751 | 0.727 | 1.06 | 0.75 | –
EKVX | 0.882 | – | 1.05 | 0.755 | 0.624 | 0.533 | 0.561 | 0.248 | 0.455 | 0.897 | 0.95 | 0.887 | 0.748 | 1.06 | 0.865 | 1.13 | 0.984 | 0.895
NCI-H460 | 0.303 | 0.505 | 0.451 | 0.412 | 0.463 | 0.525 | 0.451 | 0.27 | 0.337 | 0.531 | 0.549 | 0.697 | 0.41 | 0.421 | 1.22 | 0.818 | 0.849 | 0.555
LCLC-97TM1 | 0.341 | 0.399 | 0.429 | 0.326 | 0.989 | 0.905 | 0.984 | 0.879 | 0.794 | 0.242 | 0.239 | 0.343 | 0.48 | 0.142 | 0.183 | 0.201 | 0.211 | 0.373
COR-L23 | 0.287 | 0.344 | 0.323 | 0.406 | 0.44 | 0.511 | 0.466 | 0.424 | 0.266 | 0.699 | 0.788 | 0.921 | 0.381 | 0.931 | 1.05 | 0.984 | 0.918 | 0.801
NCI-H1355 | 0.704 | 0.727 | 0.792 | 0.792 | 0.516 | 0.738 | 0.764 | 0.671 | 0.427 | 0.885 | 0.833 | 0.919 | 0.746 | 0.868 | 0.71 | 0.891 | 0.797 | –
NCI-H1666 | 0.704 | 0.768 | 0.806 | 0.745 | 0.727 | 0.803 | 0.822 | 0.722 | 0.625 | 0.973 | 1.12 | 1.18 | 1.16 | 0.758 | 0.748 | 0.862 | 0.814 | 1.36
EPLC-272H | 0.973 | 0.761 | 0.935 | 0.801 | 0.43 | 0.278 | 0.32 | 0.211 | 0.182 | 1.1 | 0.961 | 1.05 | 1.1 | 1.15 | 1.15 | 1.22 | 1.17 | –
NCI-H1651 | 0.174 | 0.202 | 0.191 | 0.176 | 0.389 | 0.429 | 0.414 | 0.288 | 0.41 | 1.06 | 0.942 | 1.01 | 1.06 | 0.923 | 0.977 | 0.966 | 1.14 | 1.14
SW 1573 | – | 0.612 | 0.655 | 0.626 | 0.405 | 0.592 | 0.433 | 0.259 | 0.231 | 0.852 | 0.984 | 0.832 | 0.509 | 0.815 | 0.786 | 0.902 | 0.952 | 0.563
PC-3 [JPC-3] | 1.09 | 1.24 | 1.11 | 1.15 | 0.951 | 1 | 1.02 | 0.901 | 0.82 | 1.1 | 1.09 | 1.03 | 0.866 | 0.913 | 0.975 | 0.936 | 0.896 | 1.12
LOU-NH91 | 0.927 | 0.963 | 0.974 | 0.877 | 0.425 | 0.571 | 0.527 | 0.492 | 0.394 | 0.684 | 0.764 | 0.671 | 0.613 | 0.85 | 1 | 1.14 | 0.962 | 0.609
PC-14 | 0.21 | 0.273 | 0.228 | 0.279 | 0.216 | 0.29 | 0.246 | 0.206 | 0.131 | 0.925 | 0.932 | 1.02 | 0.811 | 0.997 | 0.992 | 1.03 | 0.941 | 1.02
NCI-H2087 | 0.522 | 0.545 | 0.528 | 0.633 | 0.956 | 0.912 | 0.869 | – | 0.65 | 0.897 | 0.855 | 0.803 | 0.495 | 1.04 | 1.09 | 0.973 | 0.96 | 0.844
LU99A | 0.257 | 0.259 | 0.269 | 0.314 | – | 0.507 | 0.536 | 0.495 | 0.508 | 0.554 | 0.554 | 0.562 | 0.52 | 0.53 | 0.579 | 0.551 | 0.513 | 0.545
BEN | 1.01 | 1.09 | 1.2 | 0.967 | 0.245 | 0.252 | 0.396 | 0.319 | 0.265 | 1.07 | 0.995 | 1.09 | 0.731 | 0.689 | 0.984 | 0.921 | 0.913 | 1.25
